One experiment has as its target T1, CK1α (Homo sapiens, UniProt P48729+Q96SW2).
T1 construct: CSNK1A1-HiBit KI HEK293(LgBit) Cells; host or cells: HEK293(LgBit) knock-in cells
Description: HiBiT degradation assay, CK1α, Procedure A. Type of experiment: cell-based. In short, it runs like this:
(§1)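 Cells in DMEM+10% FBS at 1×10^6 cells/ml were added to pre-spotted compound (10-point dose response, 10 μM to 0.005 μM, 0.1% DMSO) and incubated 6 h at 37° C. Nano-Glo HiBiT lytic reagent was added and luminescence read. DC50 and Ymin came from 4-parameter curve fits.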

A further experiment has as its target GSPT1 (Homo sapiens, UniProt P15170+Q96SW2). Put plainly: HiBiT degradation assay, GSPT1, Procedure A. Type of experiment: cell-based. Also noted: HiBit-GSPT1 KI HEK293(LgBit) Cells; host or cells: HEK293(LgBit) knock-in cells. In short, it runs like this: as §1

Chain of GSPT1 (P15170 whole entry): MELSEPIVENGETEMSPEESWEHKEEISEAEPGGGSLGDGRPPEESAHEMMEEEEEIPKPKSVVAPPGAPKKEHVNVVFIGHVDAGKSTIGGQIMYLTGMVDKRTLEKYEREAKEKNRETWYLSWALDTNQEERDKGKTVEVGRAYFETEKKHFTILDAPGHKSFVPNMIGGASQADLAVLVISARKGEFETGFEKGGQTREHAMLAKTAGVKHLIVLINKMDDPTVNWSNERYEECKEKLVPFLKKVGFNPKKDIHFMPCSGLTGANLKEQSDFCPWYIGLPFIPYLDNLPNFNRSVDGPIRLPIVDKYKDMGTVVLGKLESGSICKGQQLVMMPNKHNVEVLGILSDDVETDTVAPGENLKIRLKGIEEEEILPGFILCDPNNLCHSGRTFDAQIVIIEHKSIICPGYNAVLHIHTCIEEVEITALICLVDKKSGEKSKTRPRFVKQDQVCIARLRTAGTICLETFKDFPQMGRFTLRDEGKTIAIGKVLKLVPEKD
Chain of GSPT1 (Q96SW2 whole entry): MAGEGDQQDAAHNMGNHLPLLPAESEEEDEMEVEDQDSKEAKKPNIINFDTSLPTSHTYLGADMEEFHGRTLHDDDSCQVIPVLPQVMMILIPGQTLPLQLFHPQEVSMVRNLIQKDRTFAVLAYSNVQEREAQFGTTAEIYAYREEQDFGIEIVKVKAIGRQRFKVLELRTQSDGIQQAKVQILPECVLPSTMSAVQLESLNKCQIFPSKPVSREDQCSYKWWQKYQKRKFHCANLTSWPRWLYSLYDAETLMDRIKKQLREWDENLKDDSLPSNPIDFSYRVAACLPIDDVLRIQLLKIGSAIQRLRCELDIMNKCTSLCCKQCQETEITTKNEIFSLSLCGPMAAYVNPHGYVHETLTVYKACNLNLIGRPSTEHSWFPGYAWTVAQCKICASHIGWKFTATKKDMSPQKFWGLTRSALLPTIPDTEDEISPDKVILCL
Chain of GSPT1 (Q16531 whole entry partner): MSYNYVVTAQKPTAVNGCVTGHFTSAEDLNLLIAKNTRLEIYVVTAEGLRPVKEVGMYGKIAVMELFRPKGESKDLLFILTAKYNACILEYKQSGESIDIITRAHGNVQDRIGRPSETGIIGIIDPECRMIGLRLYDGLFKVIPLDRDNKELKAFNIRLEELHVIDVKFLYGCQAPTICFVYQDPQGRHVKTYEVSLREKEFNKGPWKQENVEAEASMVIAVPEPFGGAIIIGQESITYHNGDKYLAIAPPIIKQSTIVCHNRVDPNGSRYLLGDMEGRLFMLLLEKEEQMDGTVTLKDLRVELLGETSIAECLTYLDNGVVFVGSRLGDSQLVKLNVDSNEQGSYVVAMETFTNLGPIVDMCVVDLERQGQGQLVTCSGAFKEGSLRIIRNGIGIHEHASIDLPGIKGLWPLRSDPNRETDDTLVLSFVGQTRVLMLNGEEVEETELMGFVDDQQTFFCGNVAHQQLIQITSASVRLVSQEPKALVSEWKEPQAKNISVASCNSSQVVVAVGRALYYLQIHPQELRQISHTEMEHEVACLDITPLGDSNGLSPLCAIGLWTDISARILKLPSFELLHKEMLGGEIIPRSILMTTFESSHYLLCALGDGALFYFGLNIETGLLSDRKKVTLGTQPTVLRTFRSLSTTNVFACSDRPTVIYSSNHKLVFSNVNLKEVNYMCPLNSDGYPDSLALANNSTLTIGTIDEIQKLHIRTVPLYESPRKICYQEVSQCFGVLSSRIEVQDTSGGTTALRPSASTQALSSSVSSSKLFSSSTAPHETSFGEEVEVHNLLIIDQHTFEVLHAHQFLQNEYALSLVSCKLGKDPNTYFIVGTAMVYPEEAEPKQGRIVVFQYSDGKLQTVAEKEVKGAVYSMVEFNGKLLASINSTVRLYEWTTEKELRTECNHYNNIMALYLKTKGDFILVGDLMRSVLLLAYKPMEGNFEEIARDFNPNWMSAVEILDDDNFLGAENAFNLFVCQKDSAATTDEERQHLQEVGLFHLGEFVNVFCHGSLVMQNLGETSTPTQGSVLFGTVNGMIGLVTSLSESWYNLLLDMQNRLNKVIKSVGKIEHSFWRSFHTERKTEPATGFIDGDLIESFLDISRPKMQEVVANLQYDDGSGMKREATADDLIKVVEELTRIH
T1 sequence (P48729 whole entry): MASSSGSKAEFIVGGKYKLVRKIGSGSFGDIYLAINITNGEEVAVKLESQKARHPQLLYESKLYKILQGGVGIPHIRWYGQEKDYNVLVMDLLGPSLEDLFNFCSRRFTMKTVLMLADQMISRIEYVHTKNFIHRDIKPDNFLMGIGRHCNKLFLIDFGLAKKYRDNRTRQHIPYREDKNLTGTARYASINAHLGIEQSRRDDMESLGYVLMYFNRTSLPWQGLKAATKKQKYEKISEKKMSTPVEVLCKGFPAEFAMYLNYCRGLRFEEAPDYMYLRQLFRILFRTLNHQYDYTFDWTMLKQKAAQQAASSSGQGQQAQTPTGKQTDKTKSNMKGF
T1 sequence (Q96SW2 whole entry): as the sequence (Q96SW2 whole entry) above
T1 sequence (Q16531 whole entry partner): as the sequence (Q16531 whole entry partner) above

As usually defined, the DC50 is the midpoint of the concentration-degradation curve. On to `Cc1ccc(C)c(-c2c(-c3ccc4c(c3)CN(C3CCC(=O)NC3=O)C4=O)cnn2C)c1` (stereo not drawn) [Example 87], for which, on CK1α (six hours incubation), the “CK1α Ymin” value is given as “E (E = >25-75% remaining)” and the DC50 was less than 25 nM. On GSPT1 (six hours incubation), the 50% degradation concentration (DC50) is no less than 25 nM and the “GSPT1 Ymin” value was “F (F = >75-100% remaining)”.

In the case of `Cn1cnc(-c2ccc3c(c2)CN(C2CCC(=O)NC2=O)C3=O)c1-c1cccc(F)c1Cl` (stereo not drawn) [Example 262], at CK1α (six hours incubation), the “CK1α Ymin” value is reported as “D (D = >10- 25% remaining)” and the DC50 is less than 25 nM. Further, on GSPT1 (six hours incubation), the 50% degradation concentration (DC50) is no less than 25 nM and the “GSPT1 Ymin” value was “F (F = >75-100% remaining)”.

Take `Cc1nc2ccc(-c3c(-c4ccc5c(c4)CN(C4CCC(=O)NC4=O)C5=O)cnn3C)cc2[nH]1` (stereo not drawn) [Example 391]: on CK1α (six hours), the “CK1α Ymin” value was “C (C = 0-10% remaining)” and the DC50 is no less than 25 nM. At GSPT1 (six hours), the DC50 was no less than 25 nM and the “GSPT1 Ymin” value is recorded as “F (F = >75-100% remaining)”.

Consider `Cn1ncc(-c2ccc3c(c2)CN(C2CCC(=O)NC2=O)C3=O)c1-c1cccc(Cl)c1` (stereo not drawn) [Example 173], for which, at CK1α (six hours incubation), the “CK1α Ymin” value is “E (E = >25-75% remaining)” and the 50% degradation concentration (DC50) is less than 25 nM. At GSPT1 (six hours incubation), the DC50 was no less than 25 nM and the “GSPT1 Ymin” value is recorded as “F (F = >75-100% remaining)”.

For `Cn1ncc(-c2ccc3c(c2)CN(C2CCC(=O)NC2=O)C3=O)c1-c1c[nH]c2ccccc12` (stereo not drawn) [Example 474], at CK1α (six hours), the “CK1α Ymin” value was “D (D = >10- 25% remaining)” and the DC50 is less than 25 nM. Besides, on GSPT1 (six hours), the DC50 is no less than 25 nM and the “GSPT1 Ymin” value is given as “F (F = >75-100% remaining)”.

On to `Cn1cnc(-c2ccc3c(c2)CN(C2CCC(=O)NC2=O)C3=O)c1-c1cccc2cc[nH]c12` (stereo not drawn) [Example 526], for which, on CK1α (six hours), the “CK1α Ymin” value is on record as “E (E = >25-75% remaining)” and the DC50 is less than 25 nM. Moreover, at GSPT1 (six hours), the DC50 was less than 25 nM and the “GSPT1 Ymin” value was “F (F = >75-100% remaining)”.

Turning to `Cn1ncc(-c2ccc3c(c2)CN(C2CCC(=O)NC2=O)C3=O)c1-c1ccc2c(c1)CCCO2` (stereo not drawn) [Example 477], on CK1α (six hours), the “CK1α Ymin” value was “C (C = 0-10% remaining)” and the half-maximal degradation concentration (DC50) was less than 25 nM. On GSPT1 (six hours), the half-maximal degradation concentration (DC50) is no less than 25 nM and the “GSPT1 Ymin” value is reported as “F (F = >75-100% remaining)”.

For the molecule `O=C1CCC(N2Cc3cc(-c4ncsc4-c4ccccc4)ccc3C2=O)C(=O)N1` (stereo not drawn) [Example 23, 3-(1-Oxo-5-(5-phenylthiazol-4-yl)isoindolin-2-yl) piperidine-2,6-dione], on CK1α (six hours incubation), the “CK1α Ymin” value was “D (D = >10- 25% remaining)” and the 50% degradation concentration (DC50) was less than 25 nM. Further, at GSPT1 (six hours incubation), the 50% degradation concentration (DC50) is no less than 25 nM and the “GSPT1 Ymin” value is “E (E = >25-75% remaining)”.

Take `COc1c(F)cccc1-c1c(-c2ccc3c(c2)CN(C2CCC(=O)NC2=O)C3=O)ncn1C` (stereo not drawn) [Example 195]: at CK1α (six hours incubation), the “CK1α Ymin” value is listed as “D (D = >10- 25% remaining)” and the 50% degradation concentration (DC50) was less than 25 nM. On GSPT1 (six hours incubation), the DC50 was less than 25 nM and the “GSPT1 Ymin” value was “E (E = >25-75% remaining)”.

In the case of `Cn1cnc(-c2ccc3c(c2)CN(C2CCC(=O)NC2=O)C3=O)c1-c1ccc(-c2ccccc2)cc1` (stereo not drawn) [Example 294], on CK1α (six hours incubation), the “CK1α Ymin” value is recorded as “D (D = >10- 25% remaining)” and the DC50 is less than 25 nM. In addition, at GSPT1 (six hours incubation), the DC50 is less than 25 nM and the “GSPT1 Ymin” value is “E (E = >25-75% remaining)”.

Turning to `CC(C)c1nc(-c2ccc3c(c2)CN(C2CCC(=O)NC2=O)C3=O)c(-c2cncnc2)n1C` (stereo not drawn) [Example 543, 3-[5-(2-isopropyl-1-methyl-5-pyrimidin-5-yl-imidazol-4-yl)-1-oxo-isoindolin-2-yl]piperidine-2,6-dione], at CK1α (six hours), the “CK1α Ymin” value is recorded as “C (C = 0-10% remaining)” and the 50% degradation concentration (DC50) was less than 25 nM. On GSPT1 (six hours), the DC50 is no less than 25 nM and the “GSPT1 Ymin” value is recorded as “F (F = >75-100% remaining)”.

On to `Cn1ncc(-c2ccc3c(c2)CN(C2CCC(=O)NC2=O)C3=O)c1-c1ccsc1Cl` (stereo not drawn) [Example 131], for which, at CK1α (six hours incubation), the “CK1α Ymin” value was “E (E = >25-75% remaining)” and the DC50 was less than 25 nM. For the same molecule, at GSPT1 (six hours incubation), the half-maximal degradation concentration (DC50) was no less than 25 nM and the “GSPT1 Ymin” value is “F (F = >75-100% remaining)”.

For the origin of these results see patent US20240158370A1, “CK1 alpha AND DUAL CK1 alpha / GSPT1 DEGRADING COMPOUNDS” (Innovo Therapeutics, Inc., priority 2022, published 2024).
